Article PMC3476947 (Journal of medicinal chemistry, 2012)

How the values were obtained:
[1] = target: T1, HCV NS3 helicase (NS3h_1b(con1)) (Hepatitis C virus genotype 1b, UniProt Q9WMX2); test: biochemical
[2] = target: T1, HCV NS3 helicase (NS3h_1b(con1)); test: MBHA with RNA substrate; assay type: biochemical; conditions: data not shown
[3] = tested on: MBHA DNA substrate (25 base-pair); test: Fluorescent intercalator displacement; assay type: binding; conditions: 1.5 μM compound, FID counterscreen

T1 sequence (Q9WMX2 1192-1657): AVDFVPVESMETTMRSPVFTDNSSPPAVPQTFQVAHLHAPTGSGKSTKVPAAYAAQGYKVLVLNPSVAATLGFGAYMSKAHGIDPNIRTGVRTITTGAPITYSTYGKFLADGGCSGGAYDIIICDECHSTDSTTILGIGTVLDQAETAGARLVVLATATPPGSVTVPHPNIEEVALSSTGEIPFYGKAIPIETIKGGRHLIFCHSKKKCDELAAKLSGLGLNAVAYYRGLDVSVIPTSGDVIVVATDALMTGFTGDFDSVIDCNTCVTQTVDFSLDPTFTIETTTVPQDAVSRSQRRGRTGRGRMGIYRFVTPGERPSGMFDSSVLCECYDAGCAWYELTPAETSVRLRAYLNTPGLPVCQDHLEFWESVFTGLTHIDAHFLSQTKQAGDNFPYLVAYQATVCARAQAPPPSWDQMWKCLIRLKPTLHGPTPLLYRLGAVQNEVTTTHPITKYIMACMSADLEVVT

effect on HCV helicase-catalyzed DNA unwinding ([1]; MBHA, up to 100 μM)	SMILES	IC50 [1] [nM]	effect on HCV helicase-catalyzed RNA unwinding [2]	decrease of fluorescence of DNA-bound ethidium bromide [3]
–	CO[C@@H]1[C@H](O)C[C@@H](O[C@@H]2C[C@H](Oc3cc4cc5c(c(O)c4c(O)c3C)C(=O)[C@@H](O[C@H]3C[C@@H](O[C@H]4C[C@@H](O[C@H]6C[C@](C)(O)[C@@H](OC(C)=O)[C@H](C)O6)[C@H](O)[C@@H](C)O4)[C@H](O)[C@@H](C)O3)[C@H]([C@H](OC)C(=O)[C@@H](O)[C@@H](C)O)C5)O[C@H](C)[C@@H]2OC(C)=O)O[C@@H]1C [Chromomycin A3]	150 ± 30	no effect	–
no effect	Cc1ccc2c(c1)sc(-c1ccc(N(C)C)cc1)[n+]2C.[Cl-] [thioflavine T]	–	no effect	–
–	[Cl][Cd][Cl] [CdCl2]	–	–	less than 8%
–	Cc1c2ccncc2c(C)c2c1[nH]c1ccccc12 [ellipticine]	–	–	less than 8%
